Test results taken from patent publication US20130150330A1, “DECOQUINATE PRODRUGS” (UNIVERSITY OF KANSAS, priority 2011, published 2013).

Assay: Solubility in water, increasing amounts added to 1 mL deionized water
Assay type: physicochemical
Conditions: decoquinate without the prodrug moiety, comparison
Experimental: Comparatively, decoquinate without the prodrug moiety is practically insoluble in water (<0.05 mg/ml). Improved solubility in water allows administration of the decoquinate prodrug by the intravenous and intramuscular routes. Additionally, water solubility also makes oral administration feasible by improving absorption from the GI tract.

solubility: < 50 µg/mL
SMILES: CCCCCCCCCCOc1cc2c(O)c(C(=O)OCC)cnc2cc1OCC [decoquinate, ethyl 6-(decyloxy)-7-ethoxy-4-oxo-1,4-dihydroquinoline-3-carboxylate]
